This note sets out measurements from the supplement of paper PMC11208160.

A short description of the data set: recombinant UMI read abundance after kanamycin selection (control-corrected) (log10(CPM+1)); higher = more efficient recombination; extreme values may be limits of the assay; sequences stand for … in AGTGCAGAGAAAATCGGCCAGTTTTCTCTGCCTGCAGTCCGCATGCCGTGGGACCCCTTGGGTTCTAACCTGTTGCCTAGATTTATGCAGCGGACTGCCTTTCTCCCAAAGTGATAAACCGG…AGGTTGGTTTCACT; site = the 11-nt donor. Summed up:
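Values, expressed as log10(CPM+1), derive from recombinant UMI counts converted to CPM, averaged across replicates and scaled by control-derived factors. Plating was with IPTG (0.07 mM) plus kanamycin or unselected, two replicates each. The screen pooled donor and donor-binding-loop pairs for the IS621 bridge recombinase in Escherichia coli.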
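Further: IS621 bridge recombinase in Escherichia coli cells against a fixed T5 target plasmid.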

With “TTAGCGGCATGGACCGGTTTTCCCGGTAATCCGTATTTGCT (site TTTGCGGCTAG)”, the “recombinant UMI read abundance (log10)” value came to 0. The figure for “TTAGCTGCATGGACCGGTTTTCCCGGTAATCCGTATTTGGG (site TTAGCTGCTCA)” is 0; for “TTAGCTGCATGGACCGGTTTTCCCGGTAATCCGTATTTGGG (site TTAGCTGCTCC)” it is 0.0113. The figure for “TTAGCTGCATGGACCGGTTTTCCCGGTAATCCGTATTTGGG (site TTAGCTGCTCG)” is 0.0143; for “TTAGCTGCATGGACCGGTTTTCCCGGTAATCCGTATTTGGG (site TTAGCTGCTCT)” it is 0. In the case of “TTAGCTGCATGGACCGGTTTTCCCGGTAATCCGTATTTGTG (site ATAGCTGCTCA)”, the “recombinant UMI read abundance (log10)” value came out at 0.183. To “TTAGCTGCATGGACCGGTTTTCCCGGTAATCCGTATTTGTG (site CTAGCTGCTCA)” belongs 0.221; to “TTAGCTGCATGGACCGGTTTTCCCGGTAATCCGTATTTGTG (site GTAGCTGCTCA)”, 0.0161.

Regarding “TTAGCTGCATGGACCGGTTTTCCCGGTAATCCGTATTTGTG (site TAAGCTGCTCA)”, the “recombinant UMI read abundance (log10)” value was found to be 0.00653. The figure for “TTAGCTGCATGGACCGGTTTTCCCGGTAATCCGTATTTGTG (site TCAGCTGCTCA)” is 0.0262. To “TTAGCTGCATGGACCGGTTTTCCCGGTAATCCGTATTTGTG (site TGAGCTGCTCA)” belongs 0.0117; to “TTAGCTGCATGGACCGGTTTTCCCGGTAATCCGTATTTGTG (site TTAACTGCTCA)”, 0.0107; to “TTAGCTGCATGGACCGGTTTTCCCGGTAATCCGTATTTGTG (site TTACCTGCTCA)”, 0.00862. The figure for “TTAGCTGCATGGACCGGTTTTCCCGGTAATCCGTATTTGTG (site TTAGATGCTCA)” is 0.0477; for “TTAGCTGCATGGACCGGTTTTCCCGGTAATCCGTATTTGTG (site TTAGCAGCTCA)” it is 0.00587. Regarding “TTAGCTGCATGGACCGGTTTTCCCGGTAATCCGTATTTGTG (site TTAGCCGCTCA)”, the “recombinant UMI read abundance (log10)” value worked out at 0. The figure for “TTAGCTGCATGGACCGGTTTTCCCGGTAATCCGTATTTGTG (site TTAGCGGCTCA)” is 0.00865.

In the case of “TTAGCTGCATGGACCGGTTTTCCCGGTAATCCGTATTTGTG (site TTAGCTACTCA)”, the “recombinant UMI read abundance (log10)” value is 0.0282. On to “TTAGCTGCATGGACCGGTTTTCCCGGTAATCCGTATTTGTG (site TTAGCTCCTCA)”, for which the “recombinant UMI read abundance (log10)” value is 0.0123. “TTAGCTGCATGGACCGGTTTTCCCGGTAATCCGTATTTGTG (site TTAGCTGCTAA)”: the “recombinant UMI read abundance (log10)” value is 0.0166. For “TTAGCTGCATGGACCGGTTTTCCCGGTAATCCGTATTTGTG (site TTAGCTGCTCA)”, the “recombinant UMI read abundance (log10)” value worked out at 0.543. The figure for “TTAGCTGCATGGACCGGTTTTCCCGGTAATCCGTATTTGTG (site TTAGCTGCTCC)” is 0.0667; for “TTAGCTGCATGGACCGGTTTTCCCGGTAATCCGTATTTGTG (site TTAGCTGCTCG)” it is 0.0153; for “TTAGCTGCATGGACCGGTTTTCCCGGTAATCCGTATTTGTG (site TTAGCTGCTCT)” it is 0.162. “TTAGCTGCATGGACCGGTTTTCCCGGTAATCCGTATTTGTG (site TTAGCTGCTGA)”: the “recombinant UMI read abundance (log10)” value was 0.631.

Take “TTAGCTGCATGGACCGGTTTTCCCGGTAATCCGTATTTGTG (site TTAGCTGCTTA)”: the “recombinant UMI read abundance (log10)” value was 0.192. The figure for “TTAGCTGCATGGACCGGTTTTCCCGGTAATCCGTATTTGTG (site TTAGCTTCTCA)” is 0.00647; for “TTAGCTGCATGGACCGGTTTTCCCGGTAATCCGTATTTGTG (site TTAGGTGCTCA)” it is 0.0094.

Turning to “TTAGCTGCATGGACCGGTTTTCCCGGTAATCCGTATTTGTG (site TTAGTTGCTCA)”, the “recombinant UMI read abundance (log10)” value is 0.00547. On to “TTAGCTGCATGGACCGGTTTTCCCGGTAATCCGTATTTGTG (site TTATCTGCTCA)”, for which the “recombinant UMI read abundance (log10)” value was 0.0225. To “TTAGCTGCATGGACCGGTTTTCCCGGTAATCCGTATTTGTG (site TTCGCTGCTCA)” belongs 0.00425; to “TTAGCTGCATGGACCGGTTTTCCCGGTAATCCGTATTTGTG (site TTGGCTGCTCA)”, 0.0755. With “TTAGCTGCATGGACCGGTTTTCCCGGTAATCCGTATTTGTG (site TTTGCTGCTCA)”, the “recombinant UMI read abundance (log10)” value was found to be 0.00733. Consider “TTAGGTGCATGGACCGGTTTTCCCGGTAATCCGTATTTGGT (site TTAGGTGCTAC)”, for which the “recombinant UMI read abundance (log10)” value stood at 1.17. To “TTAGGTGCATGGACCGGTTTTCCCGGTAATCCGTATTTGTG (site TTAGATGCTCA)” belongs 0.787; to “TTAGGTGCATGGACCGGTTTTCCCGGTAATCCGTATTTGTG (site TTAGCTGCTCA)”, 0.0453; to “TTAGGTGCATGGACCGGTTTTCCCGGTAATCCGTATTTGTG (site TTAGGTGCTCA)”, 0.831. “TTAGGTGCATGGACCGGTTTTCCCGGTAATCCGTATTTGTG (site TTAGTTGCTCA)”: the “recombinant UMI read abundance (log10)” value came to 0.0384. The figure for “TTAGTAACATGGACCGGTTTTCCCGGTAATCCGTATTTGAC (site CTAGTATCTGT)” is 1.07. As to “TTAGTAACATGGACCGGTTTTCCCGGTAATCCGTATTTGAC (site TTAGTAACTGT)”, the “recombinant UMI read abundance (log10)” value was found to be 2.16.

As to “TTAGTATCATGGACCGGTTTTCCCGGTAATCCGTATTTGCA (site ACAGTATCTTG)”, the “recombinant UMI read abundance (log10)” value was 1.99. To “TTAGTATCATGGACCGGTTTTCCCGGTAATCCGTATTTGCA (site TTAGTATCTTG)” belongs 1.42; to “TTAGTCTCATGGACCGGTTTTCCCGGTAATCCGTATTTGAT (site TTAGTCTCTAT)”, 2.82. To “TTAGTTACATGGACCGGTTTTCCCGGTAATCCGTATTTGCC (site TTAGTTACTGG)” belongs 2.18; to “TTATACTCATGGACCGGTTTTCCCGGTAATCCGTATTTGCA (site TAATACTCTTG)”, 1.93. To “TTATACTCATGGACCGGTTTTCCCGGTAATCCGTATTTGCA (site TCATACTCTTG)” belongs 1.9; to “TTATACTCATGGACCGGTTTTCCCGGTAATCCGTATTTGCA (site TGATACTCTTG)”, 2.05; to “TTATACTCATGGACCGGTTTTCCCGGTAATCCGTATTTGCA (site TTATACTCTTG)”, 2.72. Turning to “TTATCATCATGGACCGGTTTTCCCGGTAATCCGTATTTGAG (site TTATCATCTCT)”, the “recombinant UMI read abundance (log10)” value is 0.385. Turning to “TTATGACCATGGACCGGTTTTCCCGGTAATCCGTATTTGAC (site TTATGACCTGT)”, the “recombinant UMI read abundance (log10)” value came to 0. For the sequence “TTATGCACATGGACCGGTTTTCCCGGTAATCCGTATTTGGC (site TTATGCACTGC)”, the “recombinant UMI read abundance (log10)” value came out at 1.93. In the case of “TTATGTCCATGGACCGGTTTTCCCGGTAATCCGTATTTGTA (site TTATGTCCTTA)”, the “recombinant UMI read abundance (log10)” value worked out at 0.134. On to “TTATGTCCATGGACCGGTTTTCCCGGTAATCCGTATTTGTC (site TTATGTCCTGA)”, for which the “recombinant UMI read abundance (log10)” value was found to be 0.363. The figure for “TTCAAACCATGGACCGGTTTTCCCGGTAATCCGTATTTGCG (site TTCAAACCTCG)” is 0; for “TTCAAGACATGGACCGGTTTTCCCGGTAATCCGTATTTGCC (site TTCAAGACTGG)” it is 0; for “TTCACCGCATGGACCGGTTTTCCCGGTAATCCGTATTTGCG (site TACACCGCTCG)” it is 0.00969.

In the case of “TTCACCGCATGGACCGGTTTTCCCGGTAATCCGTATTTGCG (site TCCACCGCTCG)”, the “recombinant UMI read abundance (log10)” value came out at 0.017. To “TTCACCGCATGGACCGGTTTTCCCGGTAATCCGTATTTGCG (site TGCACCGCTCG)” belongs 0.0109; to “TTCACCGCATGGACCGGTTTTCCCGGTAATCCGTATTTGCG (site TTCACCGCTCG)”, 0.0246; to “TTCACCTCATGGACCGGTTTTCCCGGTAATCCGTATTTGGT (site TTCACCTCTAC)”, 0. As for “TTCACTACATGGACCGGTTTTCCCGGTAATCCGTATTTGAG (site TTCACTACTCT)”, the “recombinant UMI read abundance (log10)” value was found to be 0.00204.

As for “TTCACTCCATGGACCGGTTTTCCCGGTAATCCGTATTTGAG (site TTCACTCCTCT)”, the “recombinant UMI read abundance (log10)” value is 0.

For the sequence “TTCATTGCATGGACCGGTTTTCCCGGTAATCCGTATTTGAA (site TTCATTGCTTT)”, the “recombinant UMI read abundance (log10)” value was 0.

For “TTCCACCCATGGACCGGTTTTCCCGGTAATCCGTATTTGAC (site TTCCACCCTGT)”, the “recombinant UMI read abundance (log10)” value is 0. For the sequence “TTCCCTTCATGGACCGGTTTTCCCGGTAATCCGTATTTGCA (site TTCCCTTCTTG)”, the “recombinant UMI read abundance (log10)” value turned out to be 0. To “TTCCGCTCATGGACCGGTTTTCCCGGTAATCCGTATTTGTG (site TTCCGCTCTCA)” belongs 0; to “TTCCTTTCATGGACCGGTTTTCCCGGTAATCCGTATTTGAT (site TTCCTTTCTAT)”, 0.

As for “TTCGACCCATGGACCGGTTTTCCCGGTAATCCGTATTTGGC (site TTCGACCCTGC)”, the “recombinant UMI read abundance (log10)” value was found to be 0.
